Consider nine compounds from US20100056523A1, “INHIBITORS OF AKT ACTIVITY” (SMITHKLINE BEECHAM CORPORATION, priority 2005, published 2010).

Molecules are shown by their SMILES. Counter-ions that a name gives are not always drawn.

As usually defined, the IC50 is the point on the concentration scale where inhibition reaches its midpoint. A lower IC50 goes with inhibition by little substance.

For data set [1], the system named is HFF (normal human foreskin fibroblast). Kind of data set: Methylene Blue Growth Inhibition Assay. In kind it is cell-based. The note with it: 72 h, HFF normal cells, 3 days incubation. Here is the method: (§1) Tumor cell lines used in this assay were BT474 (human breast carcinoma) and LNCaP (lymph node metastasis of prostate cancer). HFF (normal human foreskin fibroblast) was also included. All cell lines were cultured in RPMI 1640 media (Invitrogen Corporation 22400-071) containing 10% Fetal Bovine Serum (FBS) at 37° C. in a humidified 5% CO2 incubator. Cells were harvested using trypsin/EDTA, counted using a hemacytometer and plated in 96-well tissue culture plates (Costar 35-3075), 100 uL per well, at the following densities: BT474 15,000 cells/well, LNCaP 5,000 cells/well and HFF 5,000 cells/well. 10 mM stocks of compounds in DMSO were serially diluted in DMSO through nine 3-fold dilutions in 96-well plates (Costar Corning 3363), and stored at −80 C. The next day, compound dilutions were thawed and 4 uL of each transferred to 662 uL RPMI 1640+100 ug/mL gentamicin, resulting in twice the final required test concentrations. 100 uL of compounds diluted in RPMI 1640 were added to all cell lines. The final concentration of DMSO in all wells, including controls, was 0.3%. Cells were incubated at 37 C, 5% CO2 for 3 days. Medium was removed by aspiration. Cell biomass was estimated by staining cells with 80 uL methylene blue (Sigma M9140, 0.5% in 50:50 ethanol:water), and incubating at room temperature for 1 hour. Stain was aspirated and the plates rinsed by immersion in water, then air-dried. Stain was released from cells by adding 100 uL of solubilizing solution (1% N-lauroyl sarcosine, sodium salt, Sigma L5125, in PBS) and incubating at room temperature for at least 30 minutes. Plates were shaken and the optical density at 620 nm was measured on a microplate reader. Percent inhibition of cell growth was calculated relative to vehicle-treated control wells. Concentration of compound that inhibits 50% of cell growth (IC50) was interpolated using non-linear regression (Levenberg-Marquadt) and the equation, y=Vmax*(1−(x̂n/K̂n+x̂n)))+Y2. [Ref: Mager, M. E. (1972) Data Analysis in Biochemistry and Biophysics. New York: Academic Press]

The subject of data set [2] is LNCaP (lymph node metastasis of prostate cancer). Put plainly: Methylene Blue Growth Inhibition Assay. The data set is classed as cell-based. Conditions: Homo sapiens, 72 h, 3 days incubation. On the procedure: as §1
Data set [3] relates to BT474 (human breast carcinoma). Kind of data set: Methylene Blue Growth Inhibition Assay. The data set is classed as cell-based. Conditions: BT-474, 72 h, BT474, 3 days incubation. Here is the method:
as §1

Data set [4] in a line: Solubility in 50 mM phosphate buffer at pH 7.4. Conditions: suitability for IV dosage forms. The data set is classed as physicochemical.

Consider `CCn1c(-c2nonc2N)nc2c(C#CC(C)(C)O)ncc(OC[C@@H]3CNCCS3)c21` (single isomer, unassigned; enantiomer e1) [Example 3, 4-{2-(4-amino-1,2,5-oxadiazol-3-yl)-1-ethyl-7-[(2-thiomorpholinylmethyl)oxy]-1H-imidazo[4,5-c]pyridin-4-yl}-2-methyl-3-butyn-2-ol dihydrochloride (enantiomer E1)], for which the IC50 in data set [1] was above 30000 nM; in data set [2], 4 nM; in data set [3], 6 nM. Further, in data set [4], the “solubility (assessment in words)” value was “suitable for formulation into dosage forms for IV administration”.

Regarding `CCn1c(-c2nonc2N)nc2c(C#CC(C)(C)O)ncc(OC[C@@H]3CN(C)CCS3)c21` (single isomer, unassigned; enantiomer e1) [Example 7, 4-(2-(4-amino-1,2,5-oxadiazol-3-yl)-1-ethyl-7-{[(4-methyl-2-thiomorpholinyl)methyl]oxy}-1H-imidazo[4,5-c]pyridin-4-yl)-2-methyl-3-butyn-2-ol (enantiomer E1)], the IC50 was above 30000 nM in data set [1], 83 nM in data set [2] and 186 nM in data set [3].

Consider `CCn1c(-c2nonc2N)nc2c(C#CC(C)(C)O)ncc(OCC3CNCC(C)O3)c21` (stereo in doubt) [Example 9, 4-[2-(4-amino-1,2,5-oxadiazol-3-yl)-1-ethyl-7-({[(2R)-6-methyl-2-morpholinyl]methyl}oxy)-1H-imidazo[4,5-c]pyridin-4-yl]-2-methyl-3-butyn-2-ol, dihydrochloride], for which the IC50 in data set [1] came to 9390 nM; in data set [2] it was 49 nM; in data set [3], 80 nM. Besides, the “solubility (assessment in words)” value in data set [4] is “suitable for formulation into dosage forms for IV administration”.

As to `CCn1c(-c2nonc2N)nc2c(C#CC(C)(C)O)ncc(OC[C@H]3CCCNC3)c21` [Example 1, 4-(2-(4-amino-1,2,5-oxadiazol-3-yl)-1-ethyl-7-{[(3S)-3-piperidinylmethyl]oxy}-1H-imidazo[4,5-c]pyridin-4-yl)-2-methyl-3-butyn-2-ol], the IC50 in data set [1] was above 20000 nM; in data set [2], 16 nM; in data set [3], 484 nM. In data set [4], the “solubility (assessment in words)” value is “suitable for formulation into dosage forms for IV administration”.

Take `CCn1c(-c2nonc2N)nc2c(C#CC(C)(C)O)ncc(OC[C@H]3CNCCO3)c21` [Example 2, 4-(2-(4-amino-1,2,5-oxadiazol-3-yl)-1-ethyl-7-{[(2R)-2-morpholinylmethyl]oxy}-1H-imidazo[4,5-c]pyridin-4-yl)-2-methyl-3-butyn-2-ol dihydrochloric acid salt]: the IC50 in data set [1] is above 30000 nM; in data set [2], 189 nM; in data set [3] it was 1000 nM.

For the compound `CCn1c(-c2nonc2N)nc2c(C#CC(C)(C)O)ncc(OC[C@@H]3CNCCO3)c21` [Example 4, 4-(2-(4-amino-1,2,5-oxadiazol-3-yl)-1-ethyl-7-{[(2S)-2-morpholinylmethyl]oxy}-1H-imidazo[4,5-c]pyridin-4-yl)-2-methyl-3-butyn-2-ol], the values for the IC50 in data set [1], in data set [2] and in data set [3] were above 25000 nM, 15 nM and 37 nM, respectively. Further, the “solubility (assessment in words)” value in data set [4] was “suitable for formulation into dosage forms for IV administration”.

For `CCn1c(-c2nonc2N)nc2c(C#CC(C)(C)O)ncc(OCC3CCNC3)c21` (stereo not shown) [Example 5, 4-[2-(4-amino-1,25-oxadiazol-3-yl)-1-ethyl-7-[(3-Pyrrolidinylmethyl)oxy]-1H-imidazo[4,5-c]pyridin-4-yl]-2-methyl-3-butyn-2-ol, bis-trifluoroacetic acid salt], the figures for the IC50 in data set [1], in data set [2] and in data set [3] were 20100 nM, 459 nM and 1030 nM, respectively.

Turning to `CCn1c(-c2nonc2N)nc2c(C#CC(C)(C)O)ncc(OC[C@H]3CCCN(C)C3)c21` [Example 6, 4-[2-(4-amino-1,2,5-oxadiazol-3-yl)-1-ethyl-7-({[(3S)-1-methyl-3-piperidinyl]methyl}oxy)-1H-imidazo[4,5-c]pyridin-4-yl]-2-methyl-3-butyn-2-ol, dihydrochloride], the IC50 is 16800 nM in data set [1], 53 nM in data set [2] and 324 nM in data set [3].

On to `CCn1c(-c2nonc2N)nc2c(C#CC(C)(C)O)ncc(OC[C@@H]3CN(C)CCO3)c21` [Example 8, 4-[2-(4-amino-1,2,5-oxadiazol-3-yl)-1-ethyl-7-({[(2S)-4-methyl-2-morpholinyl]methyl}oxy)-1H-imidazo[4,5-c]pyridin-4-yl]-2-methyl-3-butyn-2-ol], for which the results for the IC50 in data set [1], in data set [2] and in data set [3] were above 30000 nM, 272 nM and 665 nM, respectively.
